In patent US7276337B2, “Compositions and methods for visual ribonuclease detection assays” (Integrated DNA Technologies, Inc., priority 2000, dated 2007):

Key:
Ribonuclease A = biological target: T1, Ribonuclease A (Bos taurus, UniProt P61823); assay: Visual detection ribonuclease assay, cleavage of Substrate ODN by RNase A; format: biochemical, mammalian; set-up: key to Sensitivity of Substrate ODN to Ribonuclease A, relative signal intensity: +++ = maximum intensity; ++ = moderate intensity; + = faint but above background; − = negative (identical to background); details: visual inspection, UV excitation, Substrate 500 nM, 37° C. 60 minutes
T1 sequence (P61823 27-150): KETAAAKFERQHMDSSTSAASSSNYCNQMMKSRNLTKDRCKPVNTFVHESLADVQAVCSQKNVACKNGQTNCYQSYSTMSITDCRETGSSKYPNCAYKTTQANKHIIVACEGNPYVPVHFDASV
Protocol: Nuclease assays were conducted using the methods of the invention. SEQ ID NO:2 and SEQ ID NO:30 oligonucleotides were individually mixed in 1× Assay Buffer at a concentration of 500 nM (50 pmoles ODN in 100 ul volume) in thin-walled, UV transparent microtubes. RNase A (1 ul, diluted to 0;1 ug/ul) was added to the respective Assay Mixes. […] Assays were set up directly in microtubes as follows:
Assay Mixes were incubated at room temperature for 10 minutes. Assays were visually examined for fluorescence emission directly in the assay tubes without further manipulation. Tubes were suspended above an ultraviolet light source, visually inspected, and photographed using a digital camera. […] The “positive” and “control” reactions appeared markedly different and were easily distinguished. […] The “positive” and “control” reactions were not markedly different to visual inspection.
(§1) Nuclease assays were conducted using the method of the invention with both visual and fluorometric detection methods. Substrates were individually mixed in 1× Assay Buffer at a concentration of 50 nM (50 pmoles oligonucleotide in 1 ml volume) for fluorometric detection or at a concentration of 500 nM (50 pmoles of oligonucleotide in 100 ul volume) for visual detection. Test nucleases were added to respective Assay Mixes beginning at 1 ul stock reagent and proceeding with a 1:10 serial dilution until undetectable. Reaction mixes were incubated at 37° C. for 60 minutes. Fluorometric detection was performed as outlined in Example 2. Visual detection was performed as outlined in Example 1.
(§2) Table 6: Sensitivity of different Substrate ODNs to Ribonuclease A. A series of Substrate ODNs were synthesized and tested for sensitivity to RNase A degradation. Stock enzyme was serial diluted to achieve final concentrations of 1 ng/ml, 100 pg/ml, and 10 pg/ml as indicated. Reactions were examined for fluorescence emission by visual inspection using an ultraviolet (UV) light source for excitation. Results were scored as +++, ++, +, or − based on relative signal intensity.
(§3) It is commonly accepted that fluorometry provides for high sensitivity. To be useful, the visual method must also offer high sensitivity. Assays were conducted using the method of the invention with visual detection. Substrate SEQ ID NO:30 was mixed in 1× Assay Buffer at a concentration of 500 nM (50 pmoles ODN in 100 ul volume) in thin-walled, UV transparent tubes. […] Dilutions of stock RNase A, RNase 1, and RNase T1 were made in water. Undiluted and diluted nuclease (1 ul) was added to respective 100 ul Assay Mixes resulting in final dilution factors of 10^−2, 10^−3, 10^−4, 10^−5, 10^−6, and 10^−7. Assays were incubated at room temperature for 10 minutes and visually examined for fluorescence emission with UV excitation. […] The experiment took about 30 minutes to perform, including 15 minutes to set-up serial dilutions, 10 minutes incubation, and 5 minutes to visualize and photograph. Thus the method of the invention allows for a rapid, simple, and convenient visual assay for the presence of ribonuclease activity.

Ribonuclease T1 = biological target: T2, Ribonuclease T1 (Aspergillus oryzae, UniProt P00651); assay: Visual detection ribonuclease assay, cleavage of Substrate ODN by RNase T1; format: biochemical; set-up: key to Sensitivity of Substrate ODN to Ribonuclease T1, relative signal intensity: +++ = maximum intensity; ++ = moderate intensity; + = faint but above background; − = negative (identical to background); details: visual inspection, UV excitation, Substrate 500 nM, 37° C. 60 minutes
T2 sequence (P00651 27-130): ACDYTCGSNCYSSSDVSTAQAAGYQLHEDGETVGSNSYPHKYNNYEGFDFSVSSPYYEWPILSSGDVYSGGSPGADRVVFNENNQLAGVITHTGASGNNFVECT
Protocol: as §1
as §2, with “Table 7:” for “Table 6:”, “Ribonuclease T1.” for “Ribonuclease A.”, “RNase T1” for “RNase A”, “of 0.001 units/ml, 0.0001 units/ml,” for “of 1 ng/ml, 100 pg/ml,”, “and 0.00001 units/ml” for “and 10 pg/ml”
as §3

Substance	Sensitivity of Substrate ODN to Ribonuclease A, relative signal intensity (Ribonuclease A; RNase A 10 pg/ml)	Sensitivity of Substrate ODN to Ribonuclease A, relative signal intensity (Ribonuclease A; RNase A 100 pg/ml)	Sensitivity of Substrate ODN to Ribonuclease A, relative signal intensity (Ribonuclease A; RNase A 1 ng/ml)	Sensitivity of Substrate ODN to Ribonuclease T1, relative signal intensity (Ribonuclease T1; RNase T1 10^−3 units/ml)	Sensitivity of Substrate ODN to Ribonuclease T1, relative signal intensity (Ribonuclease T1; RNase T1 10^−4 units/ml)	Sensitivity of Substrate ODN to Ribonuclease T1, relative signal intensity (Ribonuclease T1; RNase T1 10^−5 units/ml)
5′ Fluorescein-AAaAA-Dabcyl 3′ (NAAAAAN; 5' fluorescein and 3' Dabcyl labels, nucleotide chemistry not given here) [SEQ ID NO:6]	−	−	−	−	−	−
5′ Fluorescein-AAcAA-Dabcyl 3′ (NAACAAN; 5' fluorescein and 3' Dabcyl labels, nucleotide chemistry not given here) [SEQ ID NO:5]	−	+	++	−	−	−
5′ Fluorescein-AAgAA-Dabcyl 3′ (NAAGAAN; 5' fluorescein and 3' Dabcyl labels, nucleotide chemistry not given here) [SEQ ID NO:4]	−	−	−	+	−	−
5′ Fluorescein-AacAA-Dabcyl 3′ (NAACAAN; 5' fluorescein and 3' Dabcyl labels, nucleotide chemistry not given here) [SEQ ID NO:8]	+	+++	+++	−	−	−
5′ Fluorescein-AaggucA-QSY-7 3′ (NAAGGUCAN; 5' fluorescein and 3' QSY-7 labels, nucleotide chemistry not given here) [SEQ ID NO:28]	+	++	+++	+++	+++	++
5′ Fluorescein-AagucA-Dabcyl 3′ (NAAGUCAN; 5' fluorescein and 3' Dabcyl labels, nucleotide chemistry not given here) [SEQ ID NO:24]	−	+	+++	++	+	−
5′ Fluorescein-AagucA-QSY-7 3′ (NAAGUCAN; 5' fluorescein and 3' QSY-7 labels, nucleotide chemistry not given here) [SEQ ID NO:27]	+	++	+++	+++	++	+
5′ Fluorescein-AaugcA-QSY-7 3′ (NAAUGCAN; 5' fluorescein and 3' QSY-7 labels, nucleotide chemistry not given here) [SEQ ID NO:29]	+	+++	+++	+++	+++	++
5′ Fluorescein-AcgaA-Dabcyl 3′ (NACGAAN; 5' fluorescein and 3' Dabcyl labels, nucleotide chemistry not given here) [SEQ ID NO:12]	−	−	++	+++	++	−
5′ Fluorescein-AcgcA-Dabcyl 3′ (NACGCAN; 5' fluorescein and 3' Dabcyl labels, nucleotide chemistry not given here) [SEQ ID NO:13]	−	+	++	+++	++	−
5′ Fluorescein-AcggA-Dabcyl 3′ (NACGGAN; 5' fluorescein and 3' Dabcyl labels, nucleotide chemistry not given here) [SEQ ID NO:14]	−	+	++	+++	+++	+
5′ Fluorescein-AcguA-Dabcyl 3′ (NACGUAN; 5' fluorescein and 3' Dabcyl labels, nucleotide chemistry not given here) [SEQ ID NO:15]	−	+	+++	+++	+	−
5′ Fluorescein-AcuaA-Dabcyl 3′ (NACUAAN; 5' fluorescein and 3' Dabcyl labels, nucleotide chemistry not given here) [SEQ ID NO:17]	−	+	+++	−	−	−
